Experimental data as given in US20010053758A1, “Methods and compositions for the treatment and prevention of lung disease” (priority 1999, published 2001).

Key:
RARβ = target: T1, RARβ (Homo sapiens, UniProt P10826); experiment: RAR receptor activity as stated for the retinoid ligand; details: ligand specific to RAR receptors and not to RXR receptors
T1 sequence (P10826 1-455): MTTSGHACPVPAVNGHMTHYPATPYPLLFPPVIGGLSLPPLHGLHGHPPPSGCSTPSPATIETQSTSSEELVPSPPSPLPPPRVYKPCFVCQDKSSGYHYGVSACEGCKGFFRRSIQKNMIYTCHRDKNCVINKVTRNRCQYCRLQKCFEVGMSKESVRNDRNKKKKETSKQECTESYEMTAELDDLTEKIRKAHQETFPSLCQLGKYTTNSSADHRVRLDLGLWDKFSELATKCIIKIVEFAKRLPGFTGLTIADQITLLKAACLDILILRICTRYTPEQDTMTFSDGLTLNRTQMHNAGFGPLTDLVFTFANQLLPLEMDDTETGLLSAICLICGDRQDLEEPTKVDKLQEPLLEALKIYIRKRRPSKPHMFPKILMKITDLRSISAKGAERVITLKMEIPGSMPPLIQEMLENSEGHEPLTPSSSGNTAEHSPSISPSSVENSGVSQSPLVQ
Source text: Likewise, methods of screening candidate compounds for Specific RAR modulating activity is routine and well-known in the art. For example, U.S. Pat. No. 5,455,265, incorporated by reference herein, describes a chimeric receptor transactivation assay which tests for RAR-agonist activity in the RAR-α, RAR-β, RAR-γ, RXR-α receptor subtypes. Briefly, this assay employs chimeric proteins containing an RAR ligand-binding domain and a heterologous polypeptide segment having the ability to bind to a response element (RE), in turn facilitating transcription of a specific, measurable target gene, such as chloramphenicol acetyltransferase (CAT). Only an agonist of the given RAR isotype whose ligand binding domain comprises part of the chimeric protein will permit the activation of CAT transcription and expression. […] For example, those ligands able to stimulate CAT synthesis when used in combination with chimeric proteins having RAR binding domains, but not those having RXR ligand binding domains, will be RAR specific agonists.

[1] = test system: alveolus formation (septation) in rat lung; experiment: Alveolus formation in newborn rat pups injected intraperitoneally daily (lung histology and morphometry); assay type: in vivo, Sprague-Dawley rat
Source text: The expression of the RARβ receptor has been associated in certain cases with diminished cell replication. Following the initial injection, the rat pups were subjected to identical daily injections until day 13. A set of rat pups were sacrificed at day 4 and at […] by anesthesia with phenobarbitol sodium and scission of the abdominal aorta. Following sacrifice, rat lungs were fixed and histological sections prepared essentially as described in Massaro et al., Am. J. Physiol. 270: L305 (1996), incorporated by reference herein. The histological sections were viewed and photographs taken under light microscopy.
The differences in alveolar dimensions between treated and untreated rat pups were so pronounced, they were quantitated by measuring the distance between alveolar walls (Lm) and the surface-to-volume ratio (S/V) of the gas-exchange structures (septa). The Lm in cottonseed oil-treated rats was 80 μm±2.8 μm (N=4) compared to 110 μm±7.3 μm (N=3) in RARβ agonist-treated rats (N=3; P=0.03 by Mann Whitney nonparametric analysis). The S/V was 504 μm^−1±18 μm^−1 (N=4) in cottonseed oil-treated rats compared to 365 μm^−1±23 μm^−1 (N=3) in RARβ agonist-treated rats (P=0.03).

[2] = test system: alveolus formation in newborn rat lung; details: newborn rats; cited from earlier work
[3] = test system: elastase-induced destruction of alveolar walls; details: elastase-treated rats; cited from earlier work

SMILES | receptor activity (RARβ) | histological sections: alveolar size and degree of septation ([1]; age 14 days, treated daily from age 3 through 13 days, versus cottonseed oil alone (FIGS. 1A and 1B)) | distance between alveolar walls (Lm) ([1]; rat pups, 500 micrograms per kg i.p. daily from age 3 to 13 days, age 14 days, N=3, cottonseed oil control 80 μm±2.8 μm, P=0.03) | surface-to-volume ratio (S/V) of the gas-exchange structures ([1]; rat pups, 500 micrograms per kg i.p. daily from age 3 to 13 days, N=3, cottonseed oil control 504 μm^−1±18 μm^−1, P=0.03) | surface area ([1]; rat pups, 500 micrograms per kg i.p. daily from age 3 to 13 days, cottonseed oil control 634 cm^2 ±9 cm^2, P=0.03) | Lung volume ([1]; treated rats versus cottonseed oil-treated rats) | effect on number of alveoli [2] | effect on elastase-induced alveolar wall destruction [3]
CC1(C)CC=C(c2cccs2)c2cc(C#Cc3ccc(C(=O)O)cc3)ccc21 [AGN 193174] | RARβ agonist activity | alveoli were larger, and the degree of sepatation less | 110 μm | 365 μm^−1 | 492 cm^2 | the same in both rat groups | – | –
CC1=C(/C=C/C(C)=C/C=C/C(C)=C/C(=O)O)C(C)(C)CCC1 [all-trans-retinoic acid] | – | – | – | – | – | – | induced the formation of an increased number of alveoli in rats without enlarging the lung | appeared to reverse this destruction
